Measured values published in ChEMBL document CHEMBL4002629, “Design, synthesis and biological evaluation of novel 3-substituted 4-anilino-coumarin derivatives as antitumor agents” (Bioorg Med Chem Lett, 2017).
pIC50: −log10 of the molar value. Calls of active or inactive are those of the source. The rule behind the calls is not given here.

Assays:
PANC-1 = test: Antiproliferative activity against human PANC1 cells after 48 hrs by MTT assay; format: functional, cell-based; conditions: PANC-1, 48 h
MCF7 [1] = test: Antiproliferative activity against human MCF7 cells after 48 hrs by MTT assay; format: functional, cell-based; conditions: MCF7, 48 h
HepG2 = test: Antiproliferative activity against human HepG2 cells after 48 hrs by MTT assay; format: functional, cell-based; conditions: HepG2, 48 h
HCT-116 = test: Antiproliferative activity against human HCT116 cells after 48 hrs by MTT assay; format: functional, cell-based; conditions: HCT-116, 48 h
MCF7 [2] = test: Induction of apoptosis in human MCF7 cells assessed as late apoptotic cells at 15 uM after 48 hrs by annexin V-propidium iodide staining-based flow cytometry (reference value: 0.1%); format: functional
MCF7 [3] = test: Cell cycle arrest in human MCF7 cells assessed as accumulation at G2/M phase at 10 uM after 48 hrs by propidium iodide staining-based flow cytometric method (reference value: 24.16 +/- 2.29%); format: functional
[4] = Selectivity index, ratio of IC50 for HUVEC to IC50 for human PANC1 cells
MCF7 [5] = test: Induction of apoptosis in human MCF7 cells assessed as viable cells at 5 uM after 48 hrs by annexin V-propidium iodide staining-based flow cytometry (reference value: 96.3%); format: functional; conditions: MCF7, 48 h, read-out: Activity
MCF7 [6] = test: Induction of apoptosis in human MCF7 cells assessed as necrotic cells at 15 uM after 48 hrs by annexin V-propidium iodide staining-based flow cytometry (reference value: 0.3%); format: functional
[7] = Selectivity index, ratio of IC50 for HUVEC to IC50 for human MCF7 cells
MCF7 [8] = test: Cell cycle arrest in human MCF7 cells assessed as accumulation at G0/G1 phase at 10 uM after 48 hrs by propidium iodide staining-based flow cytometric method (reference value: 55.56 +/- 0.91%); format: functional
MCF7 [9] = test: Induction of apoptosis in human MCF7 cells assessed as necrotic cells at 5 uM after 48 hrs by annexin V-propidium iodide staining-based flow cytometry (reference value: 0.3%); format: functional
MCF7 [10] = test: Induction of apoptosis in human MCF7 cells assessed as cell rounding up at 5 to 15 uM after 24 hrs by Hoechst 33258 staining-based inverted microscopy; format: functional
MCF7 [11] = test: Induction of apoptosis in human MCF7 cells after 48 hrs by annexin V-propidium iodide staining-based flow cytometry; format: functional, cell-based
MCF7 [12] = test: Induction of apoptosis in human MCF7 cells assessed as early apoptotic cells at 5 uM after 48 hrs by annexin V-propidium iodide staining-based flow cytometry (reference value: 3.2%); format: functional
MCF7 [13] = test: Cell cycle arrest in human MCF7 cells assessed as accumulation at G0/G1 phase at 15 uM after 48 hrs by propidium iodide staining-based flow cytometric method (reference value: 55.56 +/- 0.91%); format: functional
HUVEC = test: Antiproliferative activity against HUVEC after 48 hrs by MTT assay; format: cell-based; conditions: Homo sapiens
[14] = Selectivity index, ratio of IC50 for HUVEC to IC50 for human HepG2 cells
MCF7 [15] = test: Induction of apoptosis in human MCF7 cells assessed as viable cells at 15 uM after 48 hrs by annexin V-propidium iodide staining-based flow cytometry (reference value: 96.3%); format: functional; conditions: MCF7, 48 h, read-out: Activity
MCF7 [16] = test: Induction of apoptosis in human MCF7 cells assessed as membrane shrinkage at 5 to 15 uM after 24 hrs by Hoechst 33258 staining-based inverted microscopy; format: functional, cell-based
MCF7 [17] = test: Cell cycle arrest in human MCF7 cells assessed as accumulation at G0/G1 phase at 5 uM after 48 hrs by propidium iodide staining-based flow cytometric method (reference value: 55.56 +/- 0.91%); format: functional
MCF7 [18] = test: Induction of apoptosis in human MCF7 cells assessed as necrotic cells at 10 uM after 48 hrs by annexin V-propidium iodide staining-based flow cytometry (reference value: 0.3%); format: functional
MCF7 [19] = test: Induction of apoptosis in human MCF7 cells assessed as late apoptotic cells at 5 uM after 48 hrs by annexin V-propidium iodide staining-based flow cytometry (reference value: 0.1%); format: functional
MCF7 [20] = test: Induction of apoptosis in human MCF7 cells assessed as late apoptotic cells at 10 uM after 48 hrs by annexin V-propidium iodide staining-based flow cytometry (reference value: 0.1%); format: functional
MCF7 [21] = test: Induction of apoptosis in human MCF7 cells assessed as membrane blebbing at 5 to 15 uM after 24 hrs by Hoechst 33258 staining-based inverted microscopy; format: functional, cell-based
MCF7 [22] = test: Cell cycle arrest in human MCF7 cells assessed as accumulation at G2/M phase at 5 uM after 48 hrs by propidium iodide staining-based flow cytometric method (reference value: 24.16 +/- 2.29%); format: functional
MCF7 [23] = test: Cell cycle arrest in human MCF7 cells assessed as accumulation at G2/M phase at 15 uM after 48 hrs by propidium iodide staining-based flow cytometric method (reference value: 24.16 +/- 2.29%); format: functional
MCF7 [24] = test: Induction of apoptosis in human MCF7 cells assessed as viable cells at 10 uM after 48 hrs by annexin V-propidium iodide staining-based flow cytometry (reference value: 96.3%); format: functional; conditions: MCF7, 48 h, read-out: Activity
MCF7 [25] = test: Induction of apoptosis in human MCF7 cells assessed as early apoptotic cells at 10 uM after 48 hrs by annexin V-propidium iodide staining-based flow cytometry (reference value: 3.2%); format: functional
MCF7 [26] = test: Induction of apoptosis in human MCF7 cells assessed as early apoptotic cells at 15 uM after 48 hrs by annexin V-propidium iodide staining-based flow cytometry (reference value: 3.2%); format: functional
MCF7 [27] = test: Induction of apoptosis in human MCF7 cells assessed as cell distortion at 5 to 15 uM after 24 hrs by Hoechst 33258 staining-based inverted microscopy; format: functional
[28] = Selectivity index, ratio of IC50 for HUVEC to IC50 for human HCT116 cells

With `COc1ccc2c(Nc3ccc4c(c3)OCO4)c(C(=O)C(F)(F)F)c(=O)oc2c1` the pIC50 (PANC-1) was 4.80, the pIC50 (MCF7 [1]) was 4.43 and the pIC50 (HepG2) was 4.98. For the same compound, the pIC50 (HCT-116) was 4.90.
Work on `COc1ccc(-c2c(Nc3cccc(C(F)(F)F)c3)c3ccccc3oc2=O)cc1` yielded a pIC50 (PANC-1) of 4.31, a pIC50 (MCF7 [1]) of 4.67 and a pIC50 (HepG2) of 4.18. The pIC50 (HCT-116) was 4.25.
Work on `COc1ccc2oc(=O)c(C(=O)C(F)(F)F)c(Nc3ccc4c(c3)OCO4)c2c1` yielded an Activity (MCF7 [2]) of 4.7%, an Activity (MCF7 [3]) of 41.93% and a pIC50 (PANC-1) of 5.29. The “Ratio IC50” value [4] was 5.09, the viability at 5 µM (MCF7 [5]) was 81.3% and the Activity (MCF7 [6]) was 3.3%. For the same compound, the “Ratio IC50” value [7] was 1.59, the pIC50 (MCF7 [1]) was 4.78 and the Activity (MCF7 [8]) was 30.15%. The Activity (MCF7 [9]) was 1.1%, the Activity (MCF7 [10]) was “Active” and the Activity (MCF7 [11]) was “Dose-dependent effect”. The Activity (MCF7 [12]) was 16.3%, the Activity (MCF7 [13]) was 21.93% and the pIC50 (HUVEC) was 4.58. For the same compound, the “Ratio IC50” value [14] was 4.82, the viability at 15 µM (MCF7 [15]) was 59.9% and the Activity (MCF7 [16]) was “Active”. For the same compound, the Activity (MCF7 [17]) was 45.12%, the Activity (MCF7 [18]) was 1.6% and the pIC50 (HepG2) was 5.26. The Activity (MCF7 [19]) was 1.3%, the Activity (MCF7 [20]) was 1.9% and the Activity (MCF7 [21]) was “Active”. The Activity (MCF7 [22]) was 26.13%, the Activity (MCF7 [23]) was 63.06% and the viability at 10 µM (MCF7 [24]) was 76.3%. For the same compound, the Activity (MCF7 [25]) was 20.2%, the Activity (MCF7 [26]) was 32.1% and the Activity (MCF7 [27]) was “Active”. The “Ratio IC50” value [28] was 5.94 and the pIC50 (HCT-116) was 5.35.
For `COc1ccc(-c2c(Nc3ccc(NC(C)=O)cc3)c3ccc(OC)cc3oc2=O)cc1`, the pIC50 (MCF7 [1]) was 4.07 and the pIC50 (HepG2) was less than 4.00.
With `COc1ccc2c(Nc3ccc(F)cc3)c(C(=O)C(F)(F)F)c(=O)oc2c1` the pIC50 (PANC-1) was 4.91, the pIC50 (MCF7 [1]) was 5.01 and the pIC50 (HepG2) was 5.08. It also gave a pIC50 (HCT-116) of 4.93.
`COc1ccc(-c2c(Nc3ccc(C)cc3)c3ccccc3oc2=O)cc1` showed a pIC50 (PANC-1) of 4.18, a pIC50 (MCF7 [1]) of 4.19 and a pIC50 (HepG2) of 4.23. The pIC50 (HCT-116) was 4.19.
Work on `COc1ccc(-c2c(Nc3ccc4c(c3)OCO4)c3ccc(OC)cc3oc2=O)cc1` yielded a pIC50 (MCF7 [1]) of less than 4.00 and a pIC50 (HepG2) of less than 4.00.
Work on `COc1ccc2oc(=O)c(C(=O)C(F)(F)F)c(Nc3ccc(F)cc3)c2c1` yielded a pIC50 (MCF7 [1]) of less than 4.00 and a pIC50 (HepG2) of less than 4.00.
Work on `COc1ccc(-c2c(Nc3ccc(C)c(O)c3)c3ccccc3oc2=O)cc1` yielded a pIC50 (PANC-1) of 5.01, a pIC50 (MCF7 [1]) of 4.92 and a pIC50 (HepG2) of 4.99. The pIC50 (HCT-116) was 4.91.
Work on `COc1ccc(-c2c(Nc3cc(OC)c(OC)c(OC)c3)c3ccc(OC)cc3oc2=O)cc1` yielded a pIC50 (MCF7 [1]) of 4.05 and a pIC50 (HepG2) of 4.07.
`COc1ccc(-c2c(Nc3ccc(C)c(O)c3)c3ccc(O)cc3oc2=O)cc1` gave a pIC50 (MCF7 [1]) of less than 4.00 and a pIC50 (HepG2) of less than 4.12.
Compound `COc1ccc2c(Nc3cc(OC)c(OC)c(OC)c3)c(C(=O)C(F)(F)F)c(=O)oc2c1` has a pIC50 (PANC-1) of 4.62, a pIC50 (MCF7 [1]) of 4.72 and a pIC50 (HepG2) of 4.58. It also gave a pIC50 (HCT-116) of 4.77.
`COc1ccc(Nc2c(C(=O)C(F)(F)F)c(=O)oc3ccc(OC)cc23)cc1` showed a pIC50 (MCF7 [1]) of less than 4.00 and a pIC50 (HepG2) of less than 4.00.
With `O=c1[nH]cc(F)c(=O)[nH]1` [FLUOROURACIL] the pIC50 (PANC-1) was 4.32 and the pIC50 (HCT-116) was 4.42.
In the case of `COc1ccc(-c2c(Nc3ccc(F)cc3)c3ccccc3oc2=O)cc1`, the pIC50 (PANC-1) was 4.49, the pIC50 (MCF7 [1]) was 4.42 and the pIC50 (HepG2) was 4.45. The pIC50 (HCT-116) was 4.40.
`COc1ccc(-c2c(Nc3cc(OC)c(OC)c(OC)c3)c3ccccc3oc2=O)cc1` showed a pIC50 (PANC-1) of 4.11, a pIC50 (MCF7 [1]) of 4.08 and a pIC50 (HepG2) of 4.11. For the same compound, the pIC50 (HCT-116) was 4.20.
Compound `COc1ccc(-c2c(Nc3ccc4c(c3)OCO4)c3ccc(O)cc3oc2=O)cc1` has a pIC50 (PANC-1) of 4.32, a pIC50 (MCF7 [1]) of 4.05 and a pIC50 (HepG2) of 4.10. The pIC50 (HCT-116) was 4.38.
Work on `COc1ccc(Nc2c(-c3ccc(OC)cc3)c(=O)oc3cc(O)ccc23)cc1` yielded a pIC50 (MCF7 [1]) of less than 4.00 and a pIC50 (HepG2) of 4.10.
